Experimental data published in paper PMC3793924, “Targeting Androgen Receptor/Src Complex Impairs the Aggressive Phenotype of Human Fibrosarcoma Cells” (PLoS ONE, 2013).

Experiments:
[1] = test system: HT1080 cells; assay: Wound scratch assay in HT1080 cells; format: cell-based, human; conditions: quiescent HT1080 cells, 6 h, EGF 100 ng/ml; for Effect on EGF-induced wound closure (migration): Casodex 10 μM, S1 and Ss peptides 10 nM
[2] = test system: MCF-7 cells; assay: BrdU incorporation in MCF-7 cells; format: cell-based, human; conditions: quiescent MCF-7 cells, EGF 100 ng/ml, 18 h; for Inhibition of EGF-induced BrdU incorporation: Casodex 10 μM, S1 and Ss peptides 1nM
Protocol: Quiescent human prostate cancer-derived LNCaP cells were used. In A, quiescent cells on coverslips were left unstimulated or stimulated for 18 h with the indicated compounds. […] After in vivo pulse with BrdU (100 μM), BrdU incorporation was analyzed by IF and expressed as % of total cells. Several independent experiments were performed in duplicate and the results were derived from at least 600 scored cells for each coverslip. Mean and SEM are shown. n represents the number of experiments. In B, the cells were left untreated or treated for 6 h with the indicated compounds. […] Cells were allowed to migrate in collagen pre-coated Trans-well filters. Migrated cells were stained and counted as reported in Methods. Results were derived from several independent experiments, each performed in duplicate. Data are expressed as relative increase. Mean and SEM are shown. n represents the number of experiments. Quiescent human breast cancer-derived MCF-7 cells were used. In C, quiescent cells on coverslips were left un-stimulated or stimulated for 18 h with the indicated compounds. […] After in vivo pulse with BrdU (100 μM), BrdU incorporation was analyzed by IF and expressed as % of total cells. Several independent experiments were performed in duplicate and the results were derived from at least 500 scored cells for each coverslip. Mean and SEM are shown. n represents the number of experiments. In D, the cells were left untreated or treated for 6 h with the indicated compounds. […] Cells were allowed to migrate in collagen-pre-coated Trans-well filters. Migrated cells were stained and counted as reported in Methods. Results were derived from several independent experiments, each performed in duplicate. Data are expressed as relative increase. Mean and SEM are shown. n represents the number of experiments.

[3] = test system: NIH3T3 cells; assay: BrdU incorporation in NIH3T3 fibroblasts; format: cell-based, mouse; conditions: EGF 100 ng/ml, 18 h; for Inhibition of EGF-induced BrdU incorporation: quiescent NIH3T3 fibroblasts, Casodex 10 μM, S1 and Ss peptides 1 nM
Protocol: NIH3T3 cells were used. In A, cells were transfected with 3416 or 3424 ARE-Luc constructs with or without hAR-expressing plasmid and then made quiescent as reported in Methods. Cells were left unstimulated or stimulated for 18 h with 10 nM R1881. Luciferase activity was assayed, normalized using beta-gal as an internal control, and expressed as fold induction. Three independent experiments were performed in triplicate. Means and SEM are shown; n represents the number of experiments. […] After in vivo labeling with BrdU (100 μM), BrdU incorporation was analyzed by IF and expressed as % of total cells. Several independent experiments were performed in duplicate and data derived from at least 700 scored cells for each coverslip. Mean and SEM are shown. n represents the number of experiments. […] Quiescent NIH3T3 fibroblasts were used. In C, cells on coverslips were left unstimulated or stimulated for 18 h with the indicated compounds. […] After in vivo pulse with BrdU (100 μM), BrdU incorporation was analyzed by IF and expressed as % of total cells. Several independent experiments were performed in duplicate and the results were derived from at least 500 scored cells for each coverslip. Mean and SEM are shown. n represents the number of experiments. […] The Western blot of MCF-7 cell lysate with the anti-tubulin or the anti-EGFR antibody is shown for comparison. In D, cells were left untreated or treated for 6 h with the indicated compounds. […] Cells were allowed to migrate in collagen pre-coated Trans-well filters. Migrated cells were stained and counted as reported in Methods. Results were derived from several independent experiments, each performed in duplicate. Data are expressed as relative increase. Mean and SEM are shown. n represents the number of experiments. […] (PPTX) Click here for additional data file.

[4] = test system: NIH3T3 cells; assay: Trans-well migration of NIH3T3 fibroblasts; format: cell-based, mouse; conditions: 6 h, EGF 100 ng/ml; for Inhibition of EGF-induced motility (Trans-well): quiescent NIH3T3 fibroblasts, Casodex 10 µM, S1 and Ss peptides 10 nM
Protocol: NIH3T3 cells were used. In A, cells were transfected with 3416 or 3424 ARE-Luc constructs with or without hAR-expressing plasmid and then made quiescent as reported in Methods. Cells were left unstimulated or stimulated for 18 h with 10 nM R1881. Luciferase activity was assayed, normalized using beta-gal as an internal control, and expressed as fold induction. Three independent experiments were performed in triplicate. Means and SEM are shown; n represents the number of experiments. […] After in vivo labeling with BrdU (100 μM), BrdU incorporation was analyzed by IF and expressed as % of total cells. Several independent experiments were performed in duplicate and data derived from at least 700 scored cells for each coverslip. Mean and SEM are shown. n represents the number of experiments. […] Quiescent NIH3T3 fibroblasts were used. In C, cells on coverslips were left unstimulated or stimulated for 18 h with the indicated compounds. […] After in vivo pulse with BrdU (100 μM), BrdU incorporation was analyzed by IF and expressed as % of total cells. Several independent experiments were performed in duplicate and the results were derived from at least 500 scored cells for each coverslip. Mean and SEM are shown. n represents the number of experiments. […] The Western blot of MCF-7 cell lysate with the anti-tubulin or the anti-EGFR antibody is shown for comparison. In D, cells were left untreated or treated for 6 h with the indicated compounds. […] Cells were allowed to migrate in collagen pre-coated Trans-well filters. Migrated cells were stained and counted as reported in Methods.

[5] = target: T1, EGFR/AR/Src complex (Homo sapiens, UniProt P12931); assay: Co-immunoprecipitation of EGFR/AR/Src complex in HT1080 cells; format: cell-based; conditions: quiescent HT1080 cells; for Effect on EGF-induced EGFR/AR/Src complex assembly: EGF 100 ng/ml 10 min, S1 and Ss peptides 1 nM, anti-EGFR immunoprecipitation
T1 construct: endogenous in cells; host or cells: HT1080 human fibrosarcoma cells
Protocol: Quiescent HT1080 cells were used. […] Casodex (at 10 μM) was used for comparison with the S1 peptide. Upper section in A, Western blot of HT1080 cell lysates with anti-EGFR antibody. […] In B, lysates were immune-precipitated with the anti-Src MAb and Src activity in immune complexes was assayed using acidified enolase, as a substrate. In C, cells on coverslips were left untreated or treated for 18 h with the indicated compounds. After in vivo pulse with BrdU (100 μM), BrdU incorporation was analyzed by IF and expressed as % of total nuclei. Several independent experiments were performed in duplicate and the results were obtained from at least 500 scored cells for each coverslip. Mean and SEM are shown. n represents the number of experiments.
Lysates (at 2 mg/ml protein concentration) were prepared as described. […] The Src tyrosine kinase activity in immunocomplexes was assayed using enolase (Sigma) as a substrate.

Molecule | Effect on EGF-induced wound closure (migration) [1] | Inhibition of EGF-induced BrdU incorporation [2] | Inhibition of EGF-induced BrdU incorporation [3] | Inhibition of EGF-induced motility (Trans-well) [4] | Effect on EGF-induced EGFR/AR/Src complex assembly [5] | Association of EGF-R with AR and Src upon stimulation ([5]; EGF 100 ng/ml, 10 min) | Wound closure upon stimulation [1] | BrdU incorporation upon stimulation [2] | BrdU incorporation (DNA synthesis) upon stimulation with the compound alone ([3]; quiescent NIH3T3 cells, R1881 10 nM) | Motility upon stimulation ([4]; quiescent NIH3T3 cells)
CC(O)(CS(=O)(=O)c1ccc(F)cc1)C(=O)Nc1ccc(C#N)c(C(F)(F)F)c1 (stereo not shown) [Casodex] | Only few cells migrate | inhibits EGF-induced BrdU incorporation | significantly inhibit both the responses | significantly inhibit both the responses |  |  |  |  |  | 
Ac-HPKPARIPHP-NH2 [Ss peptide] | much weaker inhibitory effect | only slightly affects DNA synthesis | slightly modifies DNA synthesis | slightly modifies | only slightly affects |  |  |  |  | 
Ac-PPPHPHARIK-NH2 [S1 peptide] | consistently inhibits the EGF-induced effect | abolishes the mitogenic response elicited by EGF | significantly inhibit both the responses | significantly inhibit both the responses | abolishes AR/Src association with EGF-R |  |  |  |  | 
EGF: epidermal growth factor (Roche), used as stimulus at 100 ng/ml |  |  |  |  |  | induces association of EGF-R with AR and Src | almost complete wound closure | robustly incorporate BrdU | significantly increases BrdU incorporation | significantly increases
